pIC50: −log10 of the molar value. Values after ≈ are worked out from the molar mass of the structure shown.

A short description of experiment [1]: Reducing power (RdP) method. The note with it: individual compounds; maximum assay concentration 100 mM. Here is the method: (§1) Five antioxidant methods were performed with SlEOs and their main individual compounds in triplicate. In the oxygen radical absorbance capacity (ORAC) assay, peroxyl radicals are produced by 2,2′-Azobis(2-methylpropionamidine) dihydrochloride (AAPH), which reacts with fluorescein giving a non-fluorescent compound [61]. The antioxidants are able to scavenge these peroxyl radicals. Trolox was used as the reference antioxidant. The 2,2-diphenyl-1-picrylhydrazyl (DPPH) and 2,2′-azino-bis(3-ethylbenzothiazoline-6-sulphonic acid) (ABTS) methods measure the bleaching produced by the reduction of the coloured DPPH and ABTS radicals. Trolox was used as the reference antioxidant. The RdP method measure the ability to reduce ferric ions, according to the method of Oyaizu. Ascorbic acid was the reference antioxidant used in this method. The ChP method measured the ability to chelate Fe^2+ ion, following the method of Miguel et al.. EDTA was used as reference antioxidant. The SlEOs were diluted in 100% ethanol in the DPPH, ABTS, RdP and ChP methods, whereas in the ORAC method, SlEOs were diluted in 15% ethanol to obtain a final concentration of 5% ethanol in the reaction medium. All measurements were made at the end-point of the reaction, except in the ORAC method (Figure S5).

A short description of experiment [2]: Oxygen radical absorbance capacity (ORAC) assay. The note with it: individual compounds, maximum assay concentration 100 mM. The method, then: as §1
The target of the next experiment is T1, AChE VI-S (Electrophorus electricus, UniProt O42275).
T1 construct: purchased Sigma-Aldrich
T1 sequence (O42275 24-633): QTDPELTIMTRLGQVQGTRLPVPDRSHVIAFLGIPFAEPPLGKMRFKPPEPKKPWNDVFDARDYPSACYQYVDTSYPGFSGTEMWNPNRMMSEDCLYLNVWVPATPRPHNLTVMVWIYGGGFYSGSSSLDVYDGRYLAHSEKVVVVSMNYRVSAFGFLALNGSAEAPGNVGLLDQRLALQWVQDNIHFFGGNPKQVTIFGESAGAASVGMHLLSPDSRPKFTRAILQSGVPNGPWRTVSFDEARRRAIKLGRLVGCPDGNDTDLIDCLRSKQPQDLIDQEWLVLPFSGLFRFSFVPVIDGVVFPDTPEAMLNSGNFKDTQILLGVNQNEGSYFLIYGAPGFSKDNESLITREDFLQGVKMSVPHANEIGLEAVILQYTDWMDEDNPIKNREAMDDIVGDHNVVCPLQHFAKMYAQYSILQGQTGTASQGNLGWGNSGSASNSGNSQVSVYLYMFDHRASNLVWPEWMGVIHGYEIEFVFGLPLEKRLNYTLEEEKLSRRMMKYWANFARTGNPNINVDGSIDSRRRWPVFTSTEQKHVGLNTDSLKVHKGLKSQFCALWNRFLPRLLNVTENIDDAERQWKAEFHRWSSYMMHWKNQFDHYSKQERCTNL
Put plainly: biochemical. Here is the method:
AChE VI-S from Electrophorus electricus was purchased from Sigma-Aldrich. AChE inhibitory activity was measured in triplicate using a 96-well microplate reader at 25 °C, according to Ellman’s method. This enzyme hydrolyzes acetylthiocholine to acetate and thiocholine, which reacts with 5,5-dithio-bis-(2-nitrobenzoic acid) (DTNB) producing a coloured compound with absorbance at 412 nm. The reaction was measured for 10 min at 25 °C, using a 96-well microplate reader. SlEOs were diluted in 15% ethanol, to obtain a final concentration of 5% ethanol in the reaction medium.
(§2) The DI in both antienzymatic assays were calculated using Equation (1):(1) DI (%)= ν0−νi/ν0 × 100 where v0 and v1 are the steady state rates without and with inhibitor, respectively. The inhibitions of LOX were reported as DI at 150 µg/mL of each SlEO. […] To calculate the IC50 values, data of DI (%) of seven different concentrations of each SlEO were plotted and fitted by non-linear regression according to Equation (2) using Sigma Plot software (systatsoftware.com) (Figure S6). The inhibitions of LOX and AChE by individual compounds were reported as IC50 or DI, depending on their inhibition capacities and solubilities.
(§3) (2) DI (%)= DImax [I]0/IC50+ [I]0

Experiment [3] relates to Candida albicans ATCC 10231. The experiment is described as follows: Broth microdilution MIC and MFC. In kind it is cell-based. The note with it: for MIC: ATCC10231, 48 h, read-out: MIC; for MFC: ATCC10231, read-out: MFC. The method, then: (§4) The following test microorganisms used in this work were acquired from Sigma-Aldrich: Pseudomonas aeruginosa ATCC 9027, Escherichia coli ATCC 8739, Staphylococcus aureus ATCC 6538, and Candida albicans ATCC 10231. The stock cultures were preserved in TSB or YPD with 15% glycerol, for bacteria and yeast cells, respectively, at −80 °C. Isolated colonies from an 18- to 24-h agar plate were transferred to MHB for bacteria and RPMI-1640 for C. albicans.
(§5) MIC were determined using the broth microdilution method in 96-well microplates, according to the M07-A10 [69] standard for bacteria and the M27-A3 [70] for Candida. Briefly, two-fold dilutions of a 40 µL/mL SlEOs were prepared to obtain a final concentration range of 0.08–20 µL/mL with 0.5% Tween®80 and 2.5% DMSO. The antimicrobial activities of main compounds were also tested in the concentration range of 0.12–15 mM with 0.5% Tween®80 and 2.5% DMSO as solvent. The final strain concentration was 5 × 10^5 CFU/mL in MHB for the bacteria and 0.5−2.5 × 10^3 in RPMI-1640 for the yeast. These plates were incubated for 24 h for bacteria and 48 h for Candida, both at 35 ± 1 °C, under aerobic conditions on a plate shaker at 100 rpm. Streptomycin (0.06–8.00 µg/mL) and fluconazole (0.13–16 µg/mL) were used as reference antibacterial and antifungal compound, respectively. […] MIC is defined as the lowest concentration of EO or individual compound with no visible growth of microorganisms, at the end of the incubation period. […] All determinations were carried out in triplicate.
(Dilution methods test growth across graded concentrations, often in twofold steps.)

The test system of experiment [4] is Staphylococcus aureus ATCC 6538. The experiment is described as follows: Broth microdilution MIC and MBC. In kind it is cell-based. The note with it: for MIC: ATCC6538, 24 h, read-out: MIC; for MBC: ATCC6538, read-out: MBC. Here is the method:
as §4, §5

Experiment [5] relates to Escherichia coli ATCC 8739. The experiment is described as follows: Broth microdilution MIC and MBC. Type of experiment: cell-based. The note with it: for MIC: ATCC8739, 24 h, read-out: MIC; for MBC: ATCC8739, read-out: MBC. The method, then: as §4, §5
Experiment [6] can be described thus: Chelating power (ChP) method. The note with it: individual compounds; maximum assay concentration 100 mM. The method, then:
as §1

The nature of another experiment: ABTS radical method. The note with it: individual compounds; maximum assay concentration 100 mM. The method, then: as §1
The next experiment concerns the target T2, LOX (Glycine max, UniProt P08170).
T2 construct: purchased Sigma-Aldrich
Put plainly: LOX inhibition assay. In kind it is biochemical, Glycine max (soybean). Conditions: at 514.2 µg/mL; could not reach 50% inhibition. The method, then:
A LOX preparation from Glycine max (soybean) was acquired from Sigma-Aldrich. LOX inhibitory activity was determined as previously reported, based on the absorption at 234 nm of the hydroperoxyde conjugated dienes (ε = 25,000 M^−1 cm^−1), which are generated from the oxidation of linoleic acid in the presence of oxygen and LOX. This assay was carried out on a double beam Lambda 35 spectrophotometer (PerkinElmer, Madrid, Spain) with the UV-Winlab software, at 25 °C.
as §2, §3

A short description of a further experiment: DPPH radical method. Conditions: individual compounds; maximum assay concentration 100 mM. Here is the method:
as §1

T2 sequence (P08170 whole entry): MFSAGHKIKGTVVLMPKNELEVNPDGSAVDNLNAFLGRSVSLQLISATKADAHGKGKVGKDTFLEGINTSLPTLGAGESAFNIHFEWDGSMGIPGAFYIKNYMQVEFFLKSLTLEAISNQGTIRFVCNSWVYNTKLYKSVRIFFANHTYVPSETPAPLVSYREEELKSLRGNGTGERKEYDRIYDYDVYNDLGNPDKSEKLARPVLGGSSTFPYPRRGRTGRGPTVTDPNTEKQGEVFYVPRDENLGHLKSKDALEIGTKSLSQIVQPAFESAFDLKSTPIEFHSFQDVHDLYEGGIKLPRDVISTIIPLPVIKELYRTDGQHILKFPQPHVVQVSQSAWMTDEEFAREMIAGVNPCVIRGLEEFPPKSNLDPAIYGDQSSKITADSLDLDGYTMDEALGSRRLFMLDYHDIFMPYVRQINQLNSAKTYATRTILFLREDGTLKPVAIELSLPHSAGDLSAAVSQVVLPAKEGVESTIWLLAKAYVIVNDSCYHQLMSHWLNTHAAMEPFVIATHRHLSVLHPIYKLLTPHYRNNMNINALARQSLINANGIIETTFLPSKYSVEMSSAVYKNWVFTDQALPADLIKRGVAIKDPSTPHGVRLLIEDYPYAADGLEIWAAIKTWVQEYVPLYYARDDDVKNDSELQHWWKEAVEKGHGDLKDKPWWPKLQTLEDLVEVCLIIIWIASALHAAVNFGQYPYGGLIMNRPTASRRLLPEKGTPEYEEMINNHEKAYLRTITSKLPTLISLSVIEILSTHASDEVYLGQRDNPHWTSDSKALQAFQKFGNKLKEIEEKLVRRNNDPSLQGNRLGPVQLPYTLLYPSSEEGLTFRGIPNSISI

Turning to `CC12CCC(CC1)C(C)(C)O2` [1,8-Cineole], the RdP result in experiment [1] is recorded as “N/D (Activity lower than 0.05 units at a maximum assay concentration of 100 mM)”. The ORAC entry in experiment [2] is reported as “N/D (Activity lower than 0.05 units at a maximum assay concentration of 100 mM)”; in experiment [2] (listed as 1,8-cineole) it was “did not show any ORAC antioxidant activity”. Also, at AChE VI-S, the pIC50 was 3.64. Moreover, the MIC in [3], in experiment [4] and in experiment [5] was greater than 2300 µg/mL throughout. Further, the MFC in [3] was greater than 2300 µg/mL. Also, the MBC in [4] and in experiment [5] was greater than 2300 µg/mL throughout. In experiment [6], this compound registered a ChP of 1.1 ± 0.1 µmol EDTAE/mmol X. For the same compound, the ABTS result in “ABTS radical method” is on record as “N/D (Activity lower than 0.05 units at a maximum assay concentration of 100 mM)”. Besides, on LOX, the “DI (%) of LOX” value was determined as 30.9 ± 1.1%. Also, the DPPH entry in “DPPH radical method” is listed as “N/D (Activity lower than 0.05 units at a maximum assay concentration of 100 mM)”.
Turning to `CC1=CCC(O)(C(C)C)CC1` (stereo not drawn) [Terpinen-4-ol], in [1], the RdP entry was “N/D (Activity lower than 0.05 units at a maximum assay concentration of 100 mM)”. In experiment [2], this compound came in with an ORAC of 356.0 ± 13.6 µmol TE/mmol X. For the same compound, the “concentration at which 15% inhibition of AChE reached” value at AChE VI-S (IC50 not calculable due to low water solubility) is listed as 582.4 ± 38.1 µg/mL. For the same compound, the MIC in [3] was greater than 2300 µg/mL; in [4], 1100 µg/mL (≈ 7.13 mM); in experiment [5] it was 2300 µg/mL (≈ 14.9 mM). Moreover, the MFC in experiment [3] was greater than 2300 µg/mL. In addition, the MBC in experiment [4] and in experiment [5] was 2300 µg/mL (≈ 14.9 mM) throughout. This compound came in with a ChP in experiment [6] of 1.7 ± 0.1 µmol EDTAE/mmol X. The same compound yielded an ABTS in the experiment “ABTS radical method” of 0.3 ± 0.0 µmol TE/mmol X. The “DI (%) of LOX” value on LOX was 29.6 ± 1.0%. Also, in “DPPH radical method”, the DPPH entry is given as “N/D (Activity lower than 0.05 units at a maximum assay concentration of 100 mM)”.

A word on the pIC50: it is −log10 of the IC50, conventionally taken in molar units. Read a high pIC50 as a small IC50. By MIC is commonly meant the lowest concentration that inhibits growth of the organism. The MFC is the smallest concentration meeting the test's criterion for killing the fungus. The term MBC denotes the smallest concentration meeting the test's criterion for killing.

The record behind these values is publication PMC6152226, “Composition and Antioxidant, Antienzymatic and Antimicrobial Activities of Volatile Molecules from Spanish Salvia lavandulifolia (Vahl) Essential Oils” (Molecules : A Journal of Synthetic Chemistry and Natural …, 2017).
